The record followed here is ChEMBL document CHEMBL2010674, “Structure based design of iminohydantoin BACE1 inhibitors: identification of an orally available, centrally active BACE1 inhibitor” (Bioorg Med Chem Lett, 2012).

Data set [1] has as its target T1, Beta-secretase 1 (Homo sapiens, UniProt P56817).
Data set [2] concerns the target T1, Beta-secretase 1. The source holds these as a separate data set.
Description: Inhibition of BACE1 in HEK293 cells expressing APP swedish and london mutant assessed as decrease of amyloid-beta40 level after 4 hrs by electrochemiluminescence-based sandwich ELISA
Another data set deals with T2, Beta-secretase 2 (Homo sapiens, UniProt Q9Y5Z0).
T2 sequence (Q9Y5Z0 whole entry): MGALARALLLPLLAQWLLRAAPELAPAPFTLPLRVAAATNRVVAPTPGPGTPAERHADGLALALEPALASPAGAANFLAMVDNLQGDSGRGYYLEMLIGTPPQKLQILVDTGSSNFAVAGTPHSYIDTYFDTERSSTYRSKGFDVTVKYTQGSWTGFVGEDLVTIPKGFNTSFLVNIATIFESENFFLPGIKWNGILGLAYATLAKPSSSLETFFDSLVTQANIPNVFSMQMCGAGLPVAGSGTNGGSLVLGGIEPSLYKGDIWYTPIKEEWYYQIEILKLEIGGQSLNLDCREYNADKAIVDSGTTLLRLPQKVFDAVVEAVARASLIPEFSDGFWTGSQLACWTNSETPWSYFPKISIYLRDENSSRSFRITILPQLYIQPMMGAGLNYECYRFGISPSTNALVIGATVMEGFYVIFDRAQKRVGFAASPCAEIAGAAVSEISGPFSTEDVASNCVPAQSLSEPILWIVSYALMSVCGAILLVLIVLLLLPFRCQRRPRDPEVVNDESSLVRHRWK

A short description of data set [3]: AUC (0 to 6 hrs) in rat at 10 mg/kg, po. The data set is classed as ADME, organism-based. Set-up: time < 6 hr, dose 10 mg/kg, route oral. The settings on record: plasma.
Data set [4] has as its system Rattus norvegicus. In words: Antialzheimer activity in Sprague-Dawley rat assessed as reduction in amyloid beta40 level in plasma at 30 mg/kg, po after 3 hrs relative to vehicle treated control. The data set is classed as functional. Further details: scale not given: the % may be the effect or the level left.
For data set [5], the system named is Rattus norvegicus. In words: Antialzheimer activity in Sprague-Dawley rat assessed as reduction in amyloid beta40 level in CSF at 30 mg/kg, po after 3 hrs relative to vehicle treated control. The data set is classed as functional. Set-up: scale not given: the % may be the effect or the level left.
Another data set relates to Plasma. In words: Plasma concentration in Sprague-Dawley rat at 30 mg/kg, po. The data set is classed as ADME, organism-based. Set-up: dose 30 mg/kg, route oral. The settings on record: in vivo.
Data set [6] can be described thus: Ratio of drug level in brain to plasma in rat at 10 mg/kg, po. The data set is classed as ADME, organism-based. Set-up: dose 10 mg/kg, route oral. The settings on record: read-out: BPR.
Data set [7] is described as follows: Ratio of drug level in brain to plasma in Sprague-Dawley rat at 30 mg/kg, po. The settings on record: read-out: BPR. Further details: dose 30 mg/kg, route oral. Format: ADME, organism-based.

Molecules are shown by their SMILES. pIC50, pKi: −log10 of the molar value.

T1 sequence (P56817 whole entry): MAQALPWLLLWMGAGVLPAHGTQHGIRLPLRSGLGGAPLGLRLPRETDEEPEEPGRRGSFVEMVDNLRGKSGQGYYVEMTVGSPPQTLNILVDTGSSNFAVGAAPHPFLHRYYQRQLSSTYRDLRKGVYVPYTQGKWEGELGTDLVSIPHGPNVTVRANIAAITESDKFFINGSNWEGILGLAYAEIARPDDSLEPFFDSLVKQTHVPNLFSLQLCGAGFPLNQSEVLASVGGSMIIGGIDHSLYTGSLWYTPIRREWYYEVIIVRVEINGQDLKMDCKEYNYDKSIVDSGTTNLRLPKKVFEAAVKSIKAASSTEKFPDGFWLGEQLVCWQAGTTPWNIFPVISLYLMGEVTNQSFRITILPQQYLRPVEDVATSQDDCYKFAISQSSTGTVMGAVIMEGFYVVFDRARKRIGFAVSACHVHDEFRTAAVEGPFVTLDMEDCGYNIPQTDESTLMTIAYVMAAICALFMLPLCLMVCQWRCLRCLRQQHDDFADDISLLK

Molecule `CCOc1cccc(-c2cccc(C3(c4ccccc4)N=C(N)N(C)C3=O)c2)c1` (racemic) showed a pKi on Beta-secretase 1 [1] of 6.34.
The molecule `CC(C)C1(c2cccc(-c3cccc(Cl)c3)c2)NC(=N)N(C)C1=O` (configuration not stated) showed a pKi on Beta-secretase 1 [1] of 6.49. In addition, on Beta-secretase 1 [2], the negative logarithm of the IC50 (pIC50) is 5.34.
For the molecule `Cc1cncc(-c2cccc(C3(c4ccccc4)NC(=N)N(C)C3=O)c2)c1` (racemic), the pKi at Beta-secretase 1 [1] is 6.37.
Same read-out and setting: then `CN1C(=N)NC(c2ccccc2)(c2cccc(-c3cncc(Cl)c3)c2)C1=O` (racemic), with 7.05.
Take `CN1C(=N)NC(c2cccc(-c3cc(Cl)cc(Cl)c3)c2)(C2CC2)C1=O` (configuration not stated): on Beta-secretase 1 [1], the pKi is 7.52. Besides, at Beta-secretase 1 [2], the pIC50 is 5.62.
`Cc1cncc(-c2cccc(C3(C4CC4)NC(=N)N(C)C3=O)c2)c1` (configuration not stated): the pKi was 6.60 on Beta-secretase 1 [1] and 7.17 at Beta-secretase 2. For the same molecule, at Beta-secretase 1 [2], the pIC50 is 6.19.
Taken in the same sequence, the figures for `CN1C(=N)NC(c2cccc(-c3cncc(C#N)c3)c2)(C2CC2)C1=O` (configuration not stated) were 6.57, 6.77 and 6.21.
Molecule `CN1C(=N)NC(c2cccnc2)(c2cccc(-c3cccc(Cl)c3)c2)C1=O` (configuration not stated) gave a pKi on Beta-secretase 1 [1] of 6.77. The molecule also showed a negative logarithm of the IC50 (pIC50) against Beta-secretase 1 [2] of 5.36.
In data set [3], `CN1C(=N)N[C@@](c2cccc(-c3cncc(Cl)c3)c2)(C2CC2)C1=O` registered an AUC(0-t) at 6 h of 3.1 µM·h.
With `CN1C(=O)C(c2ccccc2)(c2cccc(-c3ccncc3)c2)N=C1N` (racemic), the pKi on Beta-secretase 1 [1] was 5.42.
In turn, `CN1C(=N)NC(c2cccc(-c3cccc(Cl)c3)c2)(C2CC2)C1=O` (configuration not stated) showed a pKi at Beta-secretase 1 [1] of 7.33. Further, the pIC50 against Beta-secretase 1 [2] was 5.72.
Turning to `COc1cncc(-c2cccc(C3(C4CC4)NC(=N)N(C)C3=O)c2)c1` (configuration not stated), the results for the pKi on Beta-secretase 1 [1] and at Beta-secretase 2 were 7.00 and 7.96, respectively. At Beta-secretase 1 [2], this molecule gave a pIC50 of 6.41.
On Beta-secretase 1 [1], `CN1C(=N)NC(c2ccccc2)(c2cccc(-c3cncc(F)c3)c2)C1=O` (racemic) gave a pKi of 6.54.
On to `CN1C(=N)NC(c2cccc(-c3cccc(Cl)c3)c2)(c2ccccn2)C1=O` (configuration not stated), for which, at Beta-secretase 1 [1], the pKi was 6.07. On Beta-secretase 1 [2], this molecule gave a pIC50 of 5.23.
`CN1C(=N)NC(c2ccccc2)(c2cccc(-c3cncc(C#N)c3)c2)C1=O` (racemic) had a pKi on Beta-secretase 1 [1] of 6.33.
Consider `CN1C(=N)NC(c2cccc(-c3cncc(F)c3)c2)(C2CC2)C1=O` (configuration not stated), for which the pKi was 6.80 at Beta-secretase 1 [1] and 6.86 at Beta-secretase 2. The molecule also gave a pIC50 against Beta-secretase 1 [2] of 6.10.
Regarding `CN1C(=N)NC(c2ccncc2)(c2cccc(-c3cccc(Cl)c3)c2)C1=O` (configuration not stated), at Beta-secretase 1 [1], the pKi is below 5.00.
Regarding `CN1C(=N)NC(C)(c2cccc(-c3cccc(Cl)c3)c2)C1=O` (configuration not stated), the pKi at Beta-secretase 1 [1] was 6.14. Also, at Beta-secretase 1 [2], the pIC50 was 5.32.
Consider `CN1C(=O)C(c2ccccc2)(c2cccc(Cl)c2)N=C1N` (racemic), for which the pKi at Beta-secretase 1 [1] is 6.52.
Same read-out and setting: in the case of `CN1C(=O)C(c2ccccc2)(c2cccc(C#N)c2)N=C1N` (racemic) it was 6.43.
`COc1cccc(-c2cccc(C3(C4CC4)NC(=N)N(C)C3=O)c2)c1` (configuration not stated) gave a pKi at Beta-secretase 2 of 8.11.
`CN1C(=N)NC(c2cncnc2)(c2cccc(-c3cccc(Cl)c3)c2)C1=O` (configuration not stated) had a pKi at Beta-secretase 1 [1] of 6.08. In addition, the pIC50 at Beta-secretase 1 [2] is 4.68.
For `CC#Cc1cncc(-c2cccc([C@@]3(C4CC4)NC(=N)N(C)C3=O)c2)c1`, the Activity with Rattus norvegicus [4] stood at 85%; in the data set on Rattus norvegicus [5] it was 54%. The concentration with Plasma worked out at 4.2 µM. The pKi at Beta-secretase 1 [1] is 8.27. In data set [3], this molecule registered an AUC(0-t) at 6 h of 17.9 µM·h. For the same molecule, the pIC50 against Beta-secretase 1 [2] is 7.09. In addition, the Kp came to 0.3 in data set [6] and 0.2 in [7].
As to `CN1C(=N)NC(c2cccc(-c3cccc(C#N)c3)c2)(C2CC2)C1=O` (configuration not stated), the pKi on Beta-secretase 1 [1] was 6.89; at Beta-secretase 2 it was 7.52. The pIC50 on Beta-secretase 1 [2] is 6.03.
On to `CN1C(=N)NC(c2ccccc2)(c2cccc(-c3cnccn3)c2)C1=O` (racemic), for which the pKi on Beta-secretase 1 [1] is 6.51.
The same measure, in the same setting: then `COc1ccc(-c2cccc(C3(c4ccccc4)NC(=N)N(C)C3=O)c2)cc1` (racemic), with 5.42; and `CN1C(=N)NC(c2ccccc2)(c2cccc(-c3ccccc3)c2)C1=O` (racemic), with 5.48.
`CCC1(c2cccc(-c3cccc(Cl)c3)c2)NC(=N)N(C)C1=O` (configuration not stated) showed a pKi on Beta-secretase 1 [1] of 6.35. Also, the pIC50 against Beta-secretase 1 [2] was 5.28.
As to `CN1C(=N)NC(c2cccc(-c3cccnc3)c2)(C2CC2)C1=O` (configuration not stated), the pKi at Beta-secretase 1 [1] is 6.57; on Beta-secretase 2, 6.44. On Beta-secretase 1 [2], this molecule showed a pIC50 of 6.06.
`Cc1cccc(C2(c3ccccc3)N=C(N)N(C)C2=O)c1` (racemic) showed a pKi on Beta-secretase 1 [1] of 6.26.
With `CN1C(=N)NC(c2ccccc2)(c2cccc(F)c2)C1=O` (racemic), on Beta-secretase 1 [1], the pKi is 6.14.
In turn, `CN1C(=N)NC(c2cccc(-c3cccc(Cl)c3)c2)(C2CCCC2)C1=O` (configuration not stated) showed a pKi at Beta-secretase 1 [1] of 6.33. This molecule also gave a pIC50 on Beta-secretase 1 [2] of 5.16.
The matching figures for `CN1C(=N)NC(c2cccc(-c3cccc(Cl)c3)c2)(C2CCC2)C1=O` (configuration not stated): 6.96 and 5.55.

The term pKi denotes the Ki on a negative log10 scale, so that one unit is a factor of ten. As usually defined, the pIC50 is the IC50 on a negative log10 scale, so that one unit is a factor of ten. As usually defined, the AUC(0-t) is the area under the concentration-time curve up to a stated or last time point.
